Laboratory results: ChEMBL document CHEMBL4184109, “Design, synthesis, and structure-activity relationship studies of novel tetrazole antifungal agents with potent activity, broad antifungal spectrum and high selectivity” (Bioorg Med Chem Lett, 2018)
pIC50: −log10 of the molar value. Converted amounts (≈) assume the structure as drawn.

Tests used:
[1] = system: Cryptococcus neoformans; assay: Antifungal activity against Cryptococcus neoformans after 72 hrs by serial dilution method; type: functional
[2] = system: Nannizzia gypsea; assay: Antifungal activity against Microsporum gypseum by serial dilution method; type: functional
[3] = molecular target: Cytochrome P450 2C19 (Homo sapiens, UniProt P33261); assay: Inhibition of CYP2C19 in human liver microsomes using mephenytoin as substrate preincubated for 10 mins with substrate followed by NADPH addition measured after 15 mins by LC/MS/MS analysis; type: ADME
[4] = molecular target: Cytochrome P450 2D6 (Homo sapiens, UniProt P10635); assay: Inhibition of CYP2D6 in human liver microsomes using dextromethorphan as substrate preincubated for 10 mins with substrate followed by NADPH addition measured after 15 mins by LC/MS/MS analysis; type: ADME
[5] = system: Trichophyton rubrum; assay: Antifungal activity against Trichophyton rubrum by serial dilution method; type: functional
[6] = system: Candida albicans; assay: Antifungal activity against Candida albicans Y0109 after 24 hrs by serial dilution method; type: functional; settings: Y0109, 24 h
[7] = system: Nakaseomyces glabratus; assay: Antifungal activity against Candida glabrata after 24 hrs by serial dilution method; type: functional
[8] = system: Aspergillus fumigatus; assay: Antifungal activity against Aspergillus fumigatus after 48 hrs by serial dilution method; type: functional
[9] = system: Candida parapsilosis; assay: Antifungal activity against Candida parapsilosis ATCC 22019 after 24 hrs by serial dilution method; type: functional; settings: Lodderomyces parapsilosis, ATCC 22019, 24 h
[10] = molecular target: T1, Cytochrome P450 1A2 (Homo sapiens, UniProt P05177); assay: Inhibition of CYP1A2 in human liver microsomes using phenacetin as substrate preincubated for 10 mins with substrate followed by NADPH addition measured after 15 mins by LC/MS/MS analysis; type: ADME
T1 sequence (P05177 whole entry): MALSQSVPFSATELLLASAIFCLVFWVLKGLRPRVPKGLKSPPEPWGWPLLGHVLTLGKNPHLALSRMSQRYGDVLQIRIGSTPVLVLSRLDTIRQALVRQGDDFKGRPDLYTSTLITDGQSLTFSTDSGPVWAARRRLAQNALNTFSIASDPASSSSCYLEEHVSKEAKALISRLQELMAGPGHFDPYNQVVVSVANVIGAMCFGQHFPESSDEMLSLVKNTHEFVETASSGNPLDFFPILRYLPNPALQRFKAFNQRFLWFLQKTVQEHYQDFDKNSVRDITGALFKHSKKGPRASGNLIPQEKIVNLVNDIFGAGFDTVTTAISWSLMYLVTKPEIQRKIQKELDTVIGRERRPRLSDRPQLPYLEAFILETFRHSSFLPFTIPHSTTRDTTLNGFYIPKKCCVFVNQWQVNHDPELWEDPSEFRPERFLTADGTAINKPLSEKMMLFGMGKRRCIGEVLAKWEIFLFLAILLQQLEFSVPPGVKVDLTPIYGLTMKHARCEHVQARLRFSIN

[11] = system: Candida albicans; assay: Antifungal activity against Candida albicans SC5314 after 24 hrs by serial dilution method; type: functional; settings: SC5314, 24 h
[12] = molecular target: Cytochrome P450 2C9 (Homo sapiens, UniProt P11712); assay: Inhibition of CYP2C9 in human liver microsomes using tolbutamide as substrate preincubated for 10 mins with substrate followed by NADPH addition measured after 15 mins by LC/MS/MS analysis; type: ADME
[13] = system: Nakaseomyces glabratus; assay: Potency index, ratio of VT-1161 MIC80 to compound MIC80 for Candida glabrata; type: functional
[14] = system: Candida parapsilosis; assay: Potency index, ratio of VT-1161 MIC80 to compound MIC80 for Candida parapsilosis ATCC 22019; type: functional
[15] = system: Cryptococcus neoformans; assay: Potency index, ratio of VT-1161 MIC80 to compound MIC80 for Cryptococcus neoformans; type: functional
[16] = system: Candida albicans; assay: Potency index, ratio of VT-1161 MIC80 to compound MIC80 for Candida albicans Y0109; type: functional
[17] = system: Candida albicans; assay: Potency index, ratio of VT-1161 MIC80 to compound MIC80 for Candida albicans SC5314; type: functional
[18] = system: Trichophyton rubrum; assay: Potency index, ratio of VT-1161 MIC80 to compound MIC80 for Trichophyton rubrum; type: functional
[19] = system: Nannizzia gypsea; assay: Potency index, ratio of VT-1161 MIC80 to compound MIC80 for Microsporum gypseum; type: functional

Chain of Cytochrome P450 2D6 (P10635 whole entry): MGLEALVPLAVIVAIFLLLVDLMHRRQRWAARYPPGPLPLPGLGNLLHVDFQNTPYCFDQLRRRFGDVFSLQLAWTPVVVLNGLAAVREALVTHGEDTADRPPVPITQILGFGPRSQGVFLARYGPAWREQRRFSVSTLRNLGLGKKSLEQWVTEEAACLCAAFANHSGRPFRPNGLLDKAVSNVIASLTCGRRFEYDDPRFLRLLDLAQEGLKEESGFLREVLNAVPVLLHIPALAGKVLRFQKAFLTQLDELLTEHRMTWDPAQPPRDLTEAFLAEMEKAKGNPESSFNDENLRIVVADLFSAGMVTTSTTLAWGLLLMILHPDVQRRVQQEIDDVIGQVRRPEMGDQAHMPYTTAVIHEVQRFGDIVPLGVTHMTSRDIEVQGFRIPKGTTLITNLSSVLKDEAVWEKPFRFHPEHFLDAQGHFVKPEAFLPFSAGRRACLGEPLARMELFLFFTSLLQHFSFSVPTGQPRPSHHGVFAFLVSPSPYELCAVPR
Chain of Cytochrome P450 2C19 (P33261 whole entry): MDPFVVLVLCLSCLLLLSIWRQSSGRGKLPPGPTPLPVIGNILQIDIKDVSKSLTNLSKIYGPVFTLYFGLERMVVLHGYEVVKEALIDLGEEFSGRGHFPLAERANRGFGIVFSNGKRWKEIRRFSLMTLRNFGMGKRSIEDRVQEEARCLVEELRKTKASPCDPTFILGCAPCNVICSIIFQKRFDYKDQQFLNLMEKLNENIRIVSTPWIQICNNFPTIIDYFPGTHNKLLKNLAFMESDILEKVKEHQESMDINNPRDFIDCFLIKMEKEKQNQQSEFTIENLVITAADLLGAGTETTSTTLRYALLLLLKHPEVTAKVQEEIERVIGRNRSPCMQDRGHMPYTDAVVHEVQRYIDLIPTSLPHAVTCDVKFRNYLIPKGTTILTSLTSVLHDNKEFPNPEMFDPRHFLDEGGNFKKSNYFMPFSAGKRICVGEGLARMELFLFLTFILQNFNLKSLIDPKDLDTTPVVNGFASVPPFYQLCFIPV
Chain of Cytochrome P450 2C9 (P11712 whole entry): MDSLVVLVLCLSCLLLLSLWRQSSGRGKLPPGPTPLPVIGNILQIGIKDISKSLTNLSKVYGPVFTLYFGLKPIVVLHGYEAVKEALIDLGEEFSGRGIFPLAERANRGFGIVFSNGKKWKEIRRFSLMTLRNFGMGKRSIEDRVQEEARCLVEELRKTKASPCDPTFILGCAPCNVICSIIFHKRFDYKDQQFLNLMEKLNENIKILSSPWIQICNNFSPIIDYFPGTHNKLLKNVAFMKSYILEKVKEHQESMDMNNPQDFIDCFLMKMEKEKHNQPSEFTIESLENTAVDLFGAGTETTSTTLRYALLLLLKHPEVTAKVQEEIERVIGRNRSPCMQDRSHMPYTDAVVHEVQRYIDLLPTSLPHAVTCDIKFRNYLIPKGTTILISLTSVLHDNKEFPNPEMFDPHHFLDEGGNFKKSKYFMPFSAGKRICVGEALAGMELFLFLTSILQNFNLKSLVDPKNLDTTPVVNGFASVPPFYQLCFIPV

Row | Compound | MIC80 [1] [µg/mL] | MIC80 [2] [µg/mL] | pIC50 [3] | pIC50 [4] | MIC80 [5] [µg/mL] | MIC80 [6] [µg/mL] | MIC80 [7] [µg/mL] | MIC80 [8] [µg/mL] | MIC80 [9] [µg/mL] | pIC50 [10] | MIC80 [11] [µg/mL] | pIC50 [12] | Ratio [13] | Ratio [14] | Ratio [15] | Ratio [16] | Ratio [17] | Ratio [18] | Ratio [19]
1 | O=c1n(-c2ccc(C(F)(F)C(O)(Cn3cnnn3)c3ccc(F)cc3F)nc2)cnn1C1CCCC1 (configuration not stated) | 1 (≈ 1.98 µM) | 16 (≈ 31.7 µM) | 4.77 | 4.97 | 4 (≈ 7.93 µM) | 0.25 (≈ 0.496 µM) | 2 (≈ 3.96 µM) | > 8 | 0.125 (≈ 0.248 µM) | 4.65 | 0.25 (≈ 0.496 µM) | 4.92 | – | – | – | – | – | – | –
2 | OC(Cn1cnnn1)(c1ccc(F)cc1F)C(F)(F)c1ccc(-c2ccc(OCC(F)(F)F)cc2)cn1 (racemic) | 1 (≈ 1.9 µM) | 8 (≈ 15.2 µM) | 5.07 | 5.06 | 2 (≈ 3.79 µM) | 1 (≈ 1.9 µM) | 2 (≈ 3.79 µM) | > 8 | 0.5 (≈ 0.948 µM) | 4.54 | 1 (≈ 1.9 µM) | 4.94 | – | – | – | – | – | – | –
3 | CC(C)(C)Cn1ncn(-c2ccc(C(F)(F)C(O)(Cn3cnnn3)c3ccc(F)cc3F)nc2)c1=O (configuration not stated) | 0.5 (≈ 0.987 µM) | 4 (≈ 7.9 µM) | 4.70 | 5.11 | 2 (≈ 3.95 µM) | 0.25 (≈ 0.494 µM) | 1 (≈ 1.97 µM) | > 64 | 0.5 (≈ 0.987 µM) | 4.60 | 0.5 (≈ 0.987 µM) | 4.60 | 2 - 4 | 2 - 4 | 2 - 4 | 2 - 4 | 2 - 4 | 2 - 4 | 2 - 4
4 | O=c1n(-c2ccc(C(F)(F)C(O)(Cn3cnnn3)c3ccc(F)cc3F)nc2)cnn1CCC1CCCCC1 (configuration not stated) | 4 (≈ 7.32 µM) | 4 (≈ 7.32 µM) | – | – | 8 (≈ 14.6 µM) | 0.5 (≈ 0.915 µM) | 1 (≈ 1.83 µM) | > 64 | 0.5 (≈ 0.915 µM) | – | 1 (≈ 1.83 µM) | – | – | – | – | – | – | – | –
5 | OC(Cn1cncn1)(Cn1cncn1)c1ccc(F)cc1F [FLUCONAZOLE] | 0.5 (≈ 1.63 µM) | 8 (≈ 26.1 µM) | – | – | 2 (≈ 6.53 µM) | 2 (≈ 6.53 µM) | 0.5 (≈ 1.63 µM) | > 64 | 1 (≈ 3.27 µM) | – | 0.5 (≈ 1.63 µM) | – | – | – | – | – | – | – | –
6 | O=c1n(-c2ccc(C(F)(F)C(O)(Cn3cnnn3)c3ccc(F)cc3F)nc2)cnn1C1CCC(F)(F)CC1 (configuration not stated) | 0.5 (≈ 0.902 µM) | > 64 | – | – | 2 (≈ 3.61 µM) | 0.5 (≈ 0.902 µM) | 2 (≈ 3.61 µM) | > 64 | 0.5 (≈ 0.902 µM) | – | 1 (≈ 1.8 µM) | – | – | – | – | – | – | – | –
7 | O=c1n(-c2ccc(C(F)(F)C(O)(Cn3cnnn3)c3ccc(F)cc3F)nc2)cnn1C1CC=CCC1 (configuration not stated) | 1 (≈ 1.94 µM) | 8 (≈ 15.5 µM) | – | – | 2 (≈ 3.87 µM) | 0.5 (≈ 0.968 µM) | 1 (≈ 1.94 µM) | > 64 | 0.125 (≈ 0.242 µM) | – | 0.5 (≈ 0.968 µM) | – | – | – | – | – | – | – | –
8 | O=c1n(-c2ccc(C(F)(F)C(O)(Cn3cnnn3)c3ccc(F)cc3F)nc2)cnn1C1CCC1 (configuration not stated) | 0.5 (≈ 1.02 µM) | > 64 | – | – | 8 (≈ 16.3 µM) | 0.25 (≈ 0.51 µM) | 1 (≈ 2.04 µM) | > 64 | 0.5 (≈ 1.02 µM) | – | 1 (≈ 2.04 µM) | – | – | – | – | – | – | – | –
9 | COC1CCC(n2ncn(-c3ccc(C(F)(F)C(O)(Cn4cnnn4)c4ccc(F)cc4F)nc3)c2=O)CC1 (configuration not stated) | 1 (≈ 1.82 µM) | > 64 | – | – | 8 (≈ 14.6 µM) | 0.5 (≈ 0.912 µM) | 4 (≈ 7.29 µM) | > 64 | 1 (≈ 1.82 µM) | – | 1 (≈ 1.82 µM) | – | – | – | – | – | – | – | –
10 | CC(C)C1CCC(n2ncn(-c3ccc(C(F)(F)C(O)(Cn4cnnn4)c4ccc(F)cc4F)nc3)c2=O)CC1 (configuration not stated) | 16 (≈ 28.5 µM) | > 64 | – | – | 1 (≈ 1.78 µM) | 8 (≈ 14.3 µM) | 16 (≈ 28.5 µM) | > 64 | 16 (≈ 28.5 µM) | – | 16 (≈ 28.5 µM) | – | – | – | – | – | – | – | –
11 | CC1CCC(n2ncn(-c3ccc(C(F)(F)C(O)(Cn4cnnn4)c4ccc(F)cc4F)nc3)c2=O)CC1 (configuration not stated) | 1 (≈ 1.88 µM) | > 64 | – | – | 0.5 (≈ 0.939 µM) | 1 (≈ 1.88 µM) | 2 (≈ 3.76 µM) | > 64 | 1 (≈ 1.88 µM) | – | 2 (≈ 3.76 µM) | – | – | – | – | – | – | – | –
12 | O=c1n(-c2ccc(C(F)(F)C(O)(Cn3cnnn3)c3ccc(F)cc3F)nc2)cnn1C1CCCCC1 (configuration not stated) | 0.125 (≈ 0.241 µM) | 4 (≈ 7.71 µM) | 4.84 | 4.68 | 2 (≈ 3.86 µM) | 0.25 (≈ 0.482 µM) | 0.25 (≈ 0.482 µM) | > 64 | 0.25 (≈ 0.482 µM) | 4.84 | 0.25 (≈ 0.482 µM) | 4.78 | – | – | – | – | – | – | –
13 | CC1(C)CCC(n2ncn(-c3ccc(C(F)(F)C(O)(Cn4cnnn4)c4ccc(F)cc4F)nc3)c2=O)CC1 (configuration not stated) | 4 (≈ 7.32 µM) | > 64 | – | – | 0.125 (≈ 0.229 µM) | 4 (≈ 7.32 µM) | 8 (≈ 14.6 µM) | > 64 | 4 (≈ 7.32 µM) | – | 4 (≈ 7.32 µM) | – | – | – | – | – | – | – | –
